Results reported in patent publication EP4035684A1, “AFFINITY ILLUDOFULVENE CONJUGATES” (AF Chemical LLC, priority 2019, dated 2022).
Where a SMILES comes first, the peptide text is derived from it. [ ]: non-standard residue; d: D form. The star is where a group is joined. ξ: configuration not given here. X4 = CC1=C(C*)C2=C(C)C3(CC3)[C@@](C)(O)C(=O)C2=C1; ξC = NC(CS)C(=O)O

Tests used:
NCI 60 cell line panel [1] = details: cited from earlier work; for Mean TGI cytostatic / GI50: mean over NCI DTP 60 cell lines; for GI50: read-out: Mean GI50 inhibition; for CC50: human, nci 60 cell lines
MV522 cell line [2] = assay: cells; format: cell-based
8392B cell line [3] = assay: Two hour toxicity: inhibition of DNA synthesis activity, nontarget cell line; format: cell-based
NCI 60 cell line panel [4] = assay: NCI DTP 60 cell line screen assay; details: for Cytotoxicity: ability to actually kill tumor cells versus only inhibiting growth
Excerpt: An ADC is engulfed by a tumor cell, transported to the endosomes (pH < 6.0) and then into the lysozomes (pH < 4). […] 4) Cancer cells can become resistant to various toxins and drugs through the development of what is termed multi-drug resistance. This process is known to occur through several different mechanisms.

MV522 cell line [5] = assay: 48 hour exposure, growth or viability by Trypan Blue Exclusion assay, target cell line; format: cell-based; details: read-out: Mean IC50 value (nM) ± SD, N=3 unless otherwise indicated
8392B cell line [6] = assay: cells; format: cell-based
[7] = system: Prostate LnCAP (positive PSA); assay: Activity of PSA cleavable analogs against PSA positive cell line, 48 hour exposure; format: cell-based; details: N=3, mean ± SD
[8] = MV522, 2 h, read-out: Mean IC50 value (nM) ± SD, N=3 unless otherwise indicated, MV522 Target Cell Line, 2 hr exposure
[9] = read-out: Mean IC50 value (nM) ± SD, N=3 unless otherwise indicated, MV522 Target Cell Line, 2 hr exposure, MV522 target cell line, 2 hr exposure, mean ± SD, N=3 unless otherwise indicated
[10] = read-out: Mean IC50 value (nM) ± SD, N=3 unless otherwise indicated, 8392B Nontarget Cell Line, 2 hr exposure, 8392B nontarget cell line, 2 hr exposure, mean ± SD, N=3 unless otherwise indicated
[11] = read-out: Mean IC50 value (nM) ± SD, N=3 unless otherwise indicated, 8392B Nontarget Cell Line, 48 hr exposure, 8392B nontarget cell line, mean ± SD, N=3 unless otherwise indicated

| Compound | IC50 (MV522 cell line [2]; [9]) | IC50 (8392B cell line [3]; [10]) | IC50 (MV522 cell line [5]) | IC50 (8392B cell line [6]; [11]) | also measured |
| --- | --- | --- | --- | --- | --- |
| CO[C@@H]1[C@H](O)CC[C@]2(CO2)[C@H]1[C@@]1(C)O[C@@H]1CC=C(C)C [Fumagillol] |  |  |  |  | Mean TGI cytostatic (NCI 60 cell line panel [1]): 9,850 nM; GI50 (NCI 60 cell line panel [1]): 6.13 µM |
| COc1cc2cc(c1Cl)N(C)C(=O)C[C@H](OC(=O)[C@H](C)N(C)C(C)=O)[C@]1(C)O[C@H]1[C@H](C)[C@@H]1C[C@@](O)(NC(=O)O1)[C@H](OC)/C=C/C=C(\C)C2 [Maytansine] |  |  |  |  | Mean TGI cytostatic (NCI 60 cell line panel [1]): 318 nM |
| C=C1C[C@H]2C=Nc3cc(OCCCOc4cc5c(cc4OC)C(=O)N4CC(=C)C[C@H]4C=N5)c(OC)cc3C(=O)N2C1 [Pyrrolobenzodiazepines] |  |  |  |  | Mean TGI cytostatic (NCI 60 cell line panel [1]): 302 nM; GI50 (NCI 60 cell line panel [1]): 0.007 µM |
| CC[C@H](C)[C@H](NC(=O)[C@H]1CCCCN1C)C(=O)N(COC(=O)CC(C)C)[C@H](C[C@@H](OC(C)=O)c1nc(C(=O)N[C@@H](Cc2ccc(O)cc2)C[C@H](C)C(=O)O)cs1)C(C)C [Tubulysin A] |  |  |  |  | CC50 (NCI 60 cell line panel [1]): > 10 µM; Mean TGI cytostatic (NCI 60 cell line panel [1]): 1,318 nM; GI50 (NCI 60 cell line panel [1]): 0.012 µM |
| CC1=C(CO)C2=C(C)C3(CC3)[C@@](C)(O)C(=O)C2=C1 [analog 002, (6'R)-6'-hydroxy-3'-(hydroxymethyl)-2',4',6'-trimethylspiro[cyclopropane-1,5'-inden]-7'(6'H)-one] |  |  |  |  | IC50 (MV522 cell line [2]; MV522, 2 h, read-out: IC50 MV522): 110 nM; IC50 (8392B cell line [3]; 2 hour exposure, nontarget cell line, read-out: IC50 8392B): > 26000 nM |
| CC1=C(CO)C2=C(C)C3(CC3)[C@@](C)(O)C(=O)C2=C1 [compound 002] |  |  |  |  | MDR Activity (NCI 60 cell line panel [4]): Yes; Activity Value (NCI 60 cell line panel [4]; negative = lyses tumor cells, zero = no growth, positive = slower growth): -15; IC50 (MV522 cell line [2]; [8]): 110 ± 40 nM |
| CC1=C(COCCBr)C2=C(C)C3(CC3)[C@@](C)(O)C(=O)C2=C1 [compound 020] | 530 ± 140 nM | 25000 ± 3100 nM |  |  |  |
| CC1=C(CSC[C@H](NC(=O)[C@H](CCCNC(=N)N)NC(=O)CNC(=O)[C@H](CC(N)=O)NC(=O)[C@@H](N)CSCC2=C(C)C=C3C(=O)[C@](C)(O)C4(CC4)C(C)=C32)C(=O)O)C2=C(C)C3(CC3)[C@@](C)(O)C(=O)C2=C1 [compound 100] (H-C(X4)NGRC(X4)-OH) | > 10000 nM |  | 1700 ± 500 nM |  |  |
| CC1=C(CSCC(N)C(=O)N[C@@H](CCCNC(=N)N)C(=O)NCC(=O)N[C@@H](CC(N)=O)C(=O)NC(CSCC2=C(C)C=C3C(=O)[C@](C)(O)C4(CC4)C(C)=C32)C(=O)O)C2=C(C)C3(CC3)[C@@](C)(O)C(=O)C2=C1 (some centres unmarked) [compound 101] (H-[ξC](X4)RGN[ξC](X4)-OH) | > 8000 nM |  | > 7500 nM |  |  |
| CC(=O)ON(C(C)=O)c1ccc(C(=O)OC[C@]2(C)C=C3C(=O)[C@](C)(O)C4(CC4)C(C)=C3C2OC(=O)c2ccc(N(OC(C)=O)C(C)=O)cc2)cc1 (some centres unmarked) [compound 140] |  |  | > 14000 nM | > 14000 nM |  |
| COC(=O)C1=C(C(=O)OC)C23C=C(C)C1C2=C(C)C1(CC1)[C@@](C)(O)C3O (some centres unmarked) [compound 141] |  | 13700 ± 1900 nM | 3700 ± 800 nM |  |  |
| COC(=O)C1=C(C(=O)OC)C23C=C(C)C1C2=C(C)C1(CC1)[C@@](C)(O)C3=O (some centres unmarked) [compound 142] |  |  | 24 ± 7 nM |  | MDR Activity (NCI 60 cell line panel [4]): Yes; Cytotoxicity (NCI 60 cell line panel [4]): Yes |
| CC1=C(CSc2nc3ccccc3s2)C2=C(C)C3(CC3)[C@@](C)(O)C(=O)C2=C1 [compound 147] | > 76000 nM | > 76000 nM |  |  |  |
| CC1=C(CSc2nnnn2-c2ccc(O)cc2)C2=C(C)C3(CC3)[C@@](C)(O)C(=O)C2=C1 [compound 154] | > 70000 nM | > 70000 nM |  |  |  |
| CC(=O)Oc1ccc(-n2nnnc2SCC2=C(C)C=C3C(=O)[C@](C)(O)C4(CC4)C(C)=C32)cc1 [compound 155] | 8200 ± 1200 nM | 17000 nM | 3600 ± 400 nM | 9100 ± 1100 nM |  |
| CC(=O)OCC1(C)C=C2C(=O)[C@](C)(O)C3(CC3)C(C)=C2C1O (some centres unmarked) [compound 159] |  | 13700 nM | 120 ± 10 nM |  | MDR Activity (NCI 60 cell line panel [4]): Yes; Cytotoxicity (NCI 60 cell line panel [4]): Yes; IC50 (MV522 cell line [2]; [8]): 2700 ± 400 nM; IC50 (8392B cell line [6]; 48 h, read-out: Mean IC50 value (nM) ± SD, N=3 unless otherwise indicated, 8392B Nontarget Cell Line, 48 hr exposure): < 10 nM |
| CC1=C(CCCOC(=O)[C@@H]2CCCN2C(=O)[C@H](CO)NC(=O)OC(C)(C)C)C2=C(C)C3(CC3)[C@@](C)(O)C(=O)C2=C1 [compound 208] |  | 25000 nM | 930 ± 160 nM |  |  |
| CC(=O)N1C[C@H](O)C[C@H]1C(=O)N[C@@H](CO)C(=O)N[C@@H](CO)C(=O)N[C@H](C(=O)N[C@@H](CCC(N)=O)C(=O)N[C@@H](CO)C(=O)N[C@@H](CO)C(=O)N1CCC[C@H]1C(=O)O[C@@H]1C2=C(C)C3(CC3)[C@@](C)(O)C(=O)C2=C[C@@]1(C)CO[Si](C)(C)C(C)(C)C)C1CCCCC1 [compound 215] |  |  | 490 ± 120 nM |  | IC50 [7]: > 20 µM |

| Compound | IC50 (MV522 cell line [2]; [9]) | IC50 (8392B cell line [3]; [10]) | IC50 (MV522 cell line [5]) | IC50 (8392B cell line [6]; [11]) | also measured |
| --- | --- | --- | --- | --- | --- |
| CC1=C2C(=CC(C)(CO[Si](C)(C)C(C)(C)C)C2OC(=O)c2ccc(S(=O)(=O)F)cc2)C(=O)C(C)(O)C12CC2 (centres unmarked) [compound 219] | > 52000 nM | > 52000 nM | > 52 nM | > 52000 nM |  |
| CC1=CC2=C(C)C3(CC3)C(C)(O)C(=NO)C2=C1 (centres unmarked) [compound 224] | > 200000 nM | > 200000 nM | > 130000 nM | > 130000 nM |  |
| CC1=C2C(=CC(C)(O)C2O)C(=NO)C(C)(O)C12CC2 (centres unmarked) [compound 225] | 47000 nM | > 350000 nM | 55000 nM | 33000 nM |  |
| CCCCCCCC/C=C/CCCCCCCC(=O)OCC1=C(C)C=C2C(=O)[C@](C)(O)C3(CC3)C(C)=C21 [compound 226] | > 59000 nM | > 59000 nM | > 59000 nM | > 59000 nM |  |
| CCCCCCCC/C=C/CCCCCCCC(=O)OCCCC1=C(C)C=C2C(=O)[C@](C)(O)C3(CC3)C(C)=C21 [compound 227] | > 57000 nM | > 57000 nM |  |  |  |
| CC1=C(CCCOC(=O)NCCCl)C2=C(C)C3(CC3)[C@@](C)(O)C(=O)C2=C1 [compound 238] | 780 ± 190 nM |  | 57 ± 8 nM |  |  |
| CC1=C(CCCNS(=O)(=O)c2ccc(C)cc2)C2=C(C)C3(CC3)[C@@](C)(O)C(=O)C2=C1 [compound 242] |  |  | 580 ± 150 nM |  |  |
| CC(=O)OCC1(C)C(OC(C)=O)C2=C(C)C3(CC3)C(C)(O)C(=O)C23CC31 (centres unmarked) [compound 250] | 99000 nM | > 275000 nM | 137000 nM | 137000 nM |  |
| CC1=C2C(O)C(C)(C)C3CC23C(=O)C(C)(O)C12CC2 (centres unmarked) [compound 252] | > 380000 nM | > 380000 nM |  | > 380000 nM |  |
| CC1=C(CCCOC(=O)c2cn(CC3=C(C)C=C4C(=O)[C@](C)(O)C5(CC5)C(C)=C43)nn2)C2=C(C)C3(CC3)[C@@](C)(O)C(=O)C2=C1 [compound 257] |  |  | 320 ± 30 nM |  |  |
| CC1=C(CCCNS(=O)(=O)NO)C2=CC3(CC3)C(C)(O)C(=O)C2=C1 (centres unmarked) [compound 265] | 810 ± 20 nM |  | 8 ± 1 nM |  |  |
| CC1=C(CNC(=O)NO)C2=C(C)C3(CC3)[C@@](C)(O)C(=O)C2=C1 [compound 277] |  | 31000 nM | 190 ± 20 nM | 9800 nM |  |
| CC1=C(CNC(=O)NCCO)C2=C(C)C3(CC3)[C@@](C)(O)C(=O)C2=C1 [compound 279] |  | > 90000 nM | 190 ± 20 nM | > 9000 nM |  |
| CC1=C(CCCNC(=O)NCCO)C2=C(C)C3(CC3)[C@@](C)(O)C(=O)C2=C1 [compound 280] |  | > 83000 nM | < 80 nM | > 2800 nM |  |
| CC1=C(CNC(=O)NCCCl)C2=C(C)C3(CC3)[C@@](C)(O)C(=O)C2=C1 [compound 282] | 680 ± 60 nM | > 85000 nM |  | > 8500 nM |  |
| CC1=C(Cn2c(=O)[nH]cc(F)c2=O)C2=C(C)C3(CC3)[C@@](C)(O)C(=O)C2=C1 [compound 287] | 455000 ± 22000 nM | 567000 ± 17000 nM |  |  |  |
| CC1=C(Cn2ccc(=O)[nH]c2=O)C2=C(C)C3(CC3)[C@@](C)(O)C(=O)C2=C1 [compound 289] | 51 ± 4 nM | > 290000 nM | 530 ± 150 nM | > 8800 nM |  |
| Halichondrin B |  |  |  |  | CC50 (NCI 60 cell line panel [1]): > 1 µM; Mean TGI cytostatic (NCI 60 cell line panel [1]): 199 nM |
